In US11696960B2, “Methods and compounds for detection and binding of aldehydes” (UNIVERSITY OF OTTAWA, priority 2017, dated 2023):

What was measured:
[1] = Preliminary in vitro toxicity assays
[2] = Hydrazone formation kinetics and reaction completion in 1×PBS at 37° C.; conditions: for kobs: pseudo-first order, carbonyl o-sulfobenzaldehyde
Method: (§1) The hydrazone peak is shown (r.t.=17.5 min for MeONA^3 and 17.2 min for MeOPH) at the time points indicated, showing a loss of the MeOPH-derived hydrazone but stability of the MeONA^3-derived product over time. All reactions were performed in 1×PBS at 37° C., and points represent mean±s.d. for n=3 trials
FIG. 13, discussed above, illustrates that the o-carboxylic acid contributes to substantial reaction completion as well as extended stability of the product hydrazone under physiological conditions. […] The hydrazone peak is shown (r.t.=17.5 min for 2f and 17.2 min for MeOPH) at the time points indicated. All reactions were performed in 1×PBS at 37° C., and points represent mean±s.d. for n=3 trials.
(§2) Repeating the methodology, however at 37° C. in 100% 1×PBS, determined the kobs for the reaction of 5-methoxy N-amino anthranilic acid (2f) and related analogs with 2-formylbenzenesulfonic acid (FIG. 13) and acetone.
(§3) Hydrazone stability was assayed both spectrophotometrically (FIG. 13, Panel A), as well as by HPLC (FIG. 13, Panel B). […] Since the signal produced by Hydrazo-CEST depends on the hydrazone form of the probe, the faster-forming and longer-lived the hydrazone product under physiological conditions, the better the imaging signal evolved and the more potentially sensitive the imaging technique.

[3] = as above
Method: as §2, §3

[4] = Hydrazone formation kinetics under pseudo-first order conditions in 1×PBS at 37° C.; conditions: carbonyl acetaldehyde
Method: The carboxylic acid ortho to the hydrazine is critical to the stability of the formed hydrazone product. All reactions were performed in 1×PBS at 37° C., and points represent mean±s.d. for n=3 trials. […]

[5] = Hydrazo-CEST MRI phantom imaging (3 T and 7 T) and in situ hydrazone formation
Method: In the upper panel, a Phantom image and Z-spectra of hydrazine 2f and hydrazones 3f and 4f were acquired at the indicated field strength, 37° C., pH 7.4, and 40 mM concentration.
Values indicate the % MTRasym±the standard deviation of the off-resonance measurements once the system had reached steady state.
The kinetics of Hydrazo-CEST signal production through hydrazone formation were also evaluated in the MRI at 37° C. in 1×PBS at pH=7.4 (FIG. 28). Either PBS or a PBS solution of 2-formylbenzenesulfonic acid at a final concentration of 20 mM was injected into the imaging phantom, and Z-spectra were acquired every 4.5 min to monitor hydrazone formation.
A single saturation peak at 6.4 ppm was observed 4.5 min after aldehyde injection. […] This MRI data confirms that Hydrazo-CEST probes are rapidly activated by aldehydes under physiological conditions, and are readily detectable by 7 T MRI. Both hydrazine and hydrazone functionalities are utilized in medications broadly spanning indications from anti-infectives and anti-parasitics, to anti-cancer agents.

[6] = Hydrazone formation with glucose under physiological conditions (interference test); conditions: 37° C., 1 PBS, pH=7.4, within 4 h of incubation
[7] = Z-spectra / CEST signal production (% MTRasym) on 300 MHz NMR; conditions: for CEST-MRI signal generation (in words): Z-spectra, 37° C., pH 7.4, 40 mM; for CEST signal production: hydrazone with o-sulfobenzaldehyde, Z-spectrum (FIG. 19)
Method: FIG. 27 provides Z-spectra of compounds 8b, 10a, 12, and 11 for Panels A to D, respectively. […] The absence of the hydrazone proton through the formation of a pyrazole also completely abolishes CEST-MRI signal (Panel D). Raw data points (S/So are shown as black circles), exchangeable proton and water Lorentzian curves, and CEST-MRI signal production MTRasym (%), are also shown. All Z-spectra are obtained at 37° C. and pH 7.4 with 40 mM compound solutions in 10:1 PBS:D2O unless otherwise indicated.
Electron donating (OH, OCH3) and electron-withdrawing (I, SO3, NO2) substituents were appended at the 5-position of N-amino anthranilic acid (compounds 2b-2f), both acetaldehyde (4b-4f) or 2-formylbenzenesulfonic acid-derived hydrazones (3b-3f) were prepared, and Z-spectra were acquired in 1:10 D2O:PBS at pH 7.4 on a 300 MHz NMR.
In this way, per molar signal output could be compared across hydrazone series to examine electronic contributions to Hydrazo-CEST.
(§4) The MRI contrast produced by CEST probes is dependent upon voxel-wise concentration, however previous investigations have reported non-linear concentration relationships for CEST contrast agents. In order to evaluate this dependence for Hydrazo-CEST compounds, Z-spectra were acquired for acetaldehyde (4b-4f) and 2-formylbenzenesulfonic acid-derived hydrazones (3b-3f) on a 300 MHz NMR from 5 mM to 40 mM, or the maximum solubility of the compound in neutral buffer. The dynamic range for Hydrazo-CEST signal production from each compound was then plotted using the maximum signal for each compound (6.4±0.4 ppm). Within the series of acetaldehyde-derived hydrazones, the 5-methoxy- (4f) and 5-hydroxy-substituted (4e) analogs had the broadest dynamic range for imaging signal, with the 5-methoxy-derivative showing the higher absolute % MTRasym and the most linear concentration-dependent signal production (R^2=0.98).
Z-spectra were acquired on a 300 MHz NMR in 10:1 PBS:D2O at 37° C., pH 7.4, at 40 mM, or the indicated concentration providing maximum solubility. Hydrazones were formed between 2f and (Panel A) 3-aminopropanal, (Panel B) crotonaldehyde, (Panel C) glyceraldehyde, and (Panel D) pyruvate.

[8] = Solubility of hydrazones in buffer; assay type: physicochemical
Method: as §4
In addition to local probe concentrations, micro-environmental pH can modify CEST signal production, as pH directly impacts ksw. The effect of pH on % MTRasym was evaluated for the unsubstituted, 5-hydroxy-, and 5-methoxy-substituted hydrazones derived from acetaldehyde (4a, 4e, 4f) and 2-formylbenzenesulfonic acid (3a, 3e, 3f). […] The hydroxy- and methoxy-substituted aryl-hydrazones (3e, 3f) gave better CEST signal production from pH 6.5-8.0, but both were insoluble at 40 mM at pH 6.0. The differential pH responses associated with the Hydrazo-CEST probes studied are justified by the higher predicted electron density around the ring-proximal nitrogen of the aliphatic versus aromatic hydrazones, which would favor the protonated form of the hydrazo moiety at higher pH values.

[9] = Hydrazone product stability (spectrophotometric, HPLC); assay type: physicochemical; conditions: 1×PBS, 37° C.
Method: as §1
The carboxylic acid ortho to the hydrazine is critical to the stability of the formed hydrazone product. All reactions were performed in 1×PBS at 37° C., and points represent mean±s.d. for n=3 trials.
as §3

[10] = Trapping of MDA by N-amino anthranilic acid probe, monitored by 1H-NMR and fluorimetry; conditions: incubation of NA^3 acid probe and MDA, 1H-NMR
Method: N-amino anthranilic acids can act as specific sensors for malondialdehyde. N-amino anthranilic acid reacts rapidly with MDA to form a fluorescent pyrazole. A proposed 2-step reaction scheme for the formation of the MDA-derived pyrazole (5) from 5-methoxy-N-amino anthranilic acid (3) is shown:
The formation of the MDA-derived pyrazole ring was monitored by ^1H-NMR. Hydrazone (4) formation happens within less than 1 min of incubation of the NA^3 acid probe and MDA. The pyrazole product (5) forms rapidly as well, and reaches completion within 20 min. The fluorescence ‘turn-on’ of the N-amino anthranilic acid probe is specific for MDA.

[11] = Time-lapse imaging of acetaldehyde-derived hydrazone formation in PBS; conditions: room temperature
Excerpt: N-Amino anthranilic esters can be fast-reacting aldehyde sensors. N-amino anthranilate methyl ester reacts rapidly with endogenous reactive aldehydes. The reaction of 5-methoxy-N-amino anthranilate methyl ester (1) with a reactive aldehyde results in the formation of […] in PBS at room temperature is shown: […]

[12] = reaction with butanal, 1:10 DMF:PBS solution; cited from earlier work
[13] = system: hippocampal CA3 neurodegeneration; conditions: TMT rat model, Wood et al. (2006); cited from earlier work

Compound: COc1ccc(NN)c(C(=O)O)c1 [Compound 2f, 5-methoxy N-amino anthranilic acid]
- in vitro toxicity [1]: initial safety
- kobs [2]: 0.112 ± 0.03 min⁻¹
- reaction completion (hydrazone formation) ([2]; within 30 min of initiation): ~90%
- kobs ([3]; pseudo-first order, 37° C., carbonyl acetone): 0.017 ± 0.0004 min⁻¹
- product formation ([3]; reaction with acetone, 37° C. (data not shown)): < 25%
- kobs [4]: 0.012 ± 0.001 min⁻¹
- maximum plateau % MTRasym ([5]; 40 mM hydrazine plus 20 mM 2-formylbenzenesulfonic acid, 37° C., 1×PBS, pH 7.4): 4.6±0.7 % MTRasym
- CEST contrast in MRI (in words) ([5]; 37° C., pH 7.4, 40 mM): produced no CEST contrast
- Hydrazo-CEST signal as share of maximal signal ([5]; within the first 4.5 min after aldehyde injection): > 50%
- hydrazone formation with D-glucose [6]: no hydrazone formation
- CEST-MRI signal generation (in words) [7]: little CEST-MRI signal

Compound: O=C(O)c1ccccc1NN=Cc1ccccc1S(=O)(=O)O [Compound 3a]
- CEST signal production [7]: ~5%

Compound: COc1ccc(NN=Cc2ccccc2S(=O)(=O)O)c(C(=O)O)c1 [Compound 3f]
- solubility ([8]; 40 mM, pH 6.0): insoluble
- stability of hydrazone product [9]: long-term stability

Compound: CC=NNc1ccccc1C(=O)O [Compound 4a]
- solubility ([8]; neutral buffer): limited solubility beyond 20 mM
- solubility ([8]; pH 6.0-8.0): completely soluble

Compound: C/C=N/Nc1ccc(OC)cc1C(=O)O [Compound 4f]
- solubility ([8]; 40 mM, pH 6.5): not soluble
- MTRasym ([7]; 5 mM): 9%
- CEST-MRI signal generation (in words) [7]: substantial signal

Compound: COc1ccc(-n2cccn2)c(C(=O)O)c1 [Compound 5]
- time to completion of pyrazole product formation [10]: ≤ 20 min
- CEST-MRI signal generation (in words) [7]: Complete abolishment of signal production

Compound: COc1ccc(N/N=C/C(O)CO)c(C(=O)O)c1 (stereo not shown) [Compound 5c]
- CEST-MRI signal generation (in words) [7]: limited signal production

Compound: COC(=O)c1cc(OC)ccc1NN [Compound 7, 5-methoxy-N-amino anthranilate methyl ester, reference compound]
- kobs [2]: 0.0008 ± 5.5e-05 min⁻¹
- time to hydrazone formation after aldehyde addition [11]: ≤ 1 s

Compound: C/C=N/Nc1ccc(OC)cc1C(=O)OC [Compound 8b, reference compound]
- CEST-MRI signal generation (in words) [7]: complete loss of the CEST effect
- CEST-MRI signal generation (in words) ([7]; listed as compound 302): prevents any CEST-MRI signal generation

Compound: COc1ccc(NN)cc1.Cl.Cl [Compound 9, 4-methoxyphenyl hydrazine dihydrochloride, reference compound]
- kobs [2]: 0.119 ± 0.02 min⁻¹

Compound: O=C(O)c1cccc(O)c1 [Compound 12, 3-Hydroxybenzoic acid, reference compound]
- CEST-MRI signal generation (in words) [7]: nearly completely abolishes signal production

Compound: NNc1ccccc1C(=O)O [Compound 101, N-amino anthranilic acid]
- pseudo-first-order rate constant (kobs) [12]: 1.5 ± 0.2 min⁻¹

Compound: O=C(O)c1cccnc1N/N=C/c1ccccc1S(=O)(=O)O [Compound 319]
- CEST signal production [7]: ~25%

Compound: ONCc1ccccc1 [N-benzylhydroxylamine]
- protection against neurodegeneration [13]: provided protection against neurodegeneration
